Laboratory results published in patent US20240277617A1, “NANOTECHNOLOGICAL PLATFORM BASED ON POLYURETHANE/POLYUREA CHEMISTRY TO FURNISH WATER-OIL-WATER MULTI WALLED AND FUNCTIONALIZABLE NANOCAPSULES AND THEIR PREPARATION PROCESS” (ECOPOL TECH SL, priority 2021, published 2024).

Key:
[1] = Acute toxicity analysis (haematological and biochemical parameters) after i.v. administration; set-up: species or system BALB/C mice; conditions: mouse, in vivo, iv
Experimental: Encapsulated non-loaded NCS nanocapsules (cationic and amphoteric nanocapsules) were i.v. administered to female BALB/C mice (8 weeks old; Charles River) at three different doses. Blood and serum samples were obtained at 24 h post-administration for acute toxicity analysis (SBCV and SHCV, Universidad Autónoma de Barcelona).
Haematological parameters analysed in blood included white blood cells (WBC) count, red blood cells (RBC) count, haemoglobin (HGB), red blood cell specific volume (HCT), mean corpuscular volume (MCV), mean corpuscular haemoglobin (MCH), mean corpuscular haemoglobin concentration (MCHC), platelet (PLT), lymphocytes (LYMPH), monocytes (MONO), neutrophils (NEU), eosinophils (EO), and basophils (BASO).
Biochemical parameters detected in serum included albumin, alanine aminotransferase (ALT), aspartate aminotransferase (AST), total bilirubin levels (TBIL), creatinine (CREA), gamma-glutamyl transferase (GGT), potassium, total proteins, sodium, and urea.
Encapsulated or free R848 was i.v. administered to female BALB/C mice (8 weeks old; Charles River) at three different doses. Blood and serum samples were obtained at 24 h post-administration for acute toxicity analysis (SBCV and SHCV, Universidad Autónoma de Barcelona).

[2] = system: A375 Human Melanoma cell line; experiment: In vivo fluorescence imaging biodistribution in subcutaneous tumor mice; conditions: i.v. at day 14 post-tumor challenge; from 3 to 9-days after NCs injection
Experimental: A model of immunodepressed mice have been used to conduct this experiment. Female NSG mice (9 weeks old, Charles River) were challenged by subcutaneous (s.c). injection of A375 Human Melanoma cell line (1×10^6) cells on the right flank with a 23-gauge needle. Amphoteric ICG-NCs and cationic ICG-NCs were administered i.v. at day 14 post-tumor challenge. PBS and ICG free was injected to control groups. Fluorescence was monitoring by in vivo imaging system (IVIS; Perkin Elmer, Waltham, MA, USA) using excitation/emission wavelength of 780 nm/845 nm.

For `CCOCc1nc2c(N)nc3ccccc3c2n1CC(C)(C)O` [Sample R848, Resiquimod], the “biochemical parameters in serum with respect to untreated groups” value [1] was “No significant differences” and the “haematological parameters with respect to untreated groups” value [1] was “No significant differences”.
With `CC1(C)C(/C=C/C=C/C=C/C=C2\N(CCCCS(=O)(=O)[O-])c3ccc4ccccc4c3C2(C)C)=[N+](CCCCS(=O)(=O)[O-])c2ccc3ccccc3c21.[Na+]` [ICG, Indocyanine Green] the “fluorescence signal / accumulation in tumor locations” value [2] was “low”.
